Experimental data: patent US9878999B2, “Proteasome chymotrypsin-like inhibition using PI-1833 analogs” (H. Lee Moffitt Cancer Center and Research Institute, Inc., priority 2011, dated 2018)
Where “and” joins values, the source holds several entries; their conditions need not be identical. Equal values may be shown once. Read-outs that look alike come from different tables or passages of the source.

Biological target: CT-L activity of purified 20S proteasome (Homo sapiens, UniProt P20618+P28074)
Experiment: in vitro CT-L activity of purified 20S proteasome
Format: biochemical
Details: for inhibition at 10 µM: Table 5, @ 10 μM, read-out: Screening Results (% Inhibition @ 10 μM) Chymotrypsin-like; for fold improved CT-L activity: compared to the hit 1 (PI-1833)
[1] = Table 5, read-out: IC50 (μM) Chymotrypsin-like
[2] = Table 3, read-out: IC50 (μM) CT-L
[3] = Table 1, read-out: IC50 (μM) Chymotrypsin-like activity

Row | SMILES | IC50 (read-out: IC50, in vitro CT-L) | IC50 [3] | also measured
1 | Cc1ccc(-c2noc(CN(C(=O)COc3ccc(C(C)C)cc3)C(C)C)n2)cc1 |  |  | IC50 [1]: 4.12 ± 0.09 µM
2 | CC(C)c1ccc(OCC(=O)N(Cc2nc(-c3ccc(Cl)cc3)no2)C(C)C)cc1 |  |  | IC50 [1]: 5.13 ± 0.09 µM
3 | CC(C)N(Cc1nc(-c2ccccc2)no1)C(=O)CCl |  |  | inhibition at 10 µM: -53 ± 23.4%
4 | Cc1ccc(OC(C)C(=O)N(Cc2nc(-c3ccccc3)no2)C(C)C)cc1 (centres unmarked) |  |  | inhibition at 10 µM: 92.43 ± 0.82%; IC50 [1]: 0.92 ± 0.21 µM
5 | Cc1ccc(OC(C)C(=O)N(Cc2nc(-c3cccnc3)no2)C(C)C)cc1 (centres unmarked) |  |  | inhibition at 10 µM: 92.9 ± 1.7%; IC50 [1]: 0.38 ± 0.099 µM
6 | Cc1ccc(OCC(=O)N(Cc2coc(-c3ccccc3)n2)C(C)C)cc1 |  |  | IC50 [1]: 0.14 ± 0.003 µM
7 | CCCc1ccc(O[C@H](C)C(=O)N(Cc2nc(-c3cccnc3)no2)C(C)C)cc1 |  |  | IC50 [1]: 2.39 µM and 1.99 µM
8 | Cc1ccc(OC(C)C(=O)N(Cc2nc(-c3cccnc3)no2)C(C)C)cc1 (racemic) [16a] | 0.318 µM |  | IC50 [2]: 0.38 ± 0.099 µM
9 | CCCc1ccc(OC(C)C(=O)N(Cc2nc(-c3cccnc3)no2)C(C)C)cc1 (racemic) [16d, N-Isopropyl-2-(4-propylphenoxy)-N-((3-(pyridine-3-yl)-1,2,4-oxadiazol-5-yl)methyl)propanamide] | 0.289 µM |  | 
10 | CCCc1ccc(OC(C)C(=O)N(Cc2nc(-c3cccnc3)no2)C(C)C)cc1 (racemic) [drawing 177] |  |  | IC50 [1]: 0.289 µM
11 | CCCc1ccc(O[C@@H](C)C(=O)N(Cc2nc(-c3cccnc3)no2)C(C)C)cc1 (single isomer, unassigned) [16f] |  |  | IC50 [2]: 2.18 ± 0.28 µM
12 | CCCc1ccc(O[C@@H](C)C(=O)N(Cc2nc(-c3cccnc3)no2)C(C)C)cc1 (single isomer, unassigned) [drawing 176] |  |  | IC50 [1]: 0.075 µM
13 | Cc1ccc(-c2noc(CN(C(=O)COc3ccc(C(F)(F)F)cc3)C(C)C)n2)cc1 [11a, N-Isopropyl-N-((3-p-tolyl-1,2,4-oxadiazol-5-yl)methyl)-2-(4-(trifluoromethyl)phenoxy)acetamide] | ~1 µM | 1.08 ± 0.33 µM | 
14 | CCc1ccc(OCC(=O)N(Cc2nc(-c3ccccc3)no2)C(C)C)cc1 [11aa, 2-(4-Ethylphenoxy)-N-isopropyl-N-((3-phenyl-1,2,4-oxadiazol-5-yl)methyl)acetamide] | 0.26 ± 0.05 µM | 0.267 ± 0.05 µM | fold improved CT-L activity: 2 fold
15 | CCc1ccc(OCC(=O)N(Cc2nc(-c3cccnc3)no2)C(C)C)cc1 [11ab, 2-(4-Ethylphenoxy)-N-isopropyl-N-((3-pyridin-3-yl)1,2,4-oxadiazol-5-yl)methylacetamide] | 0.099 ± 0.03 µM |  | fold improved CT-L activity: 6 fold
16 | CC(C)N(Cc1nc(-c2cccnc2)no1)C(=O)COc1ccccc1 [11ac, N-Isopropyl-2-phenoxy-N-((3-(pyridine-3-yl)-1,2,4-oxadiazol-5-yl)methyl)acetamide] | 3.12 ± 1.11 µM |  | 
17 | CCCCc1ccc(OCC(=O)N(Cc2nc(-c3cccnc3)no2)C(C)C)cc1 [11ae, 2-(4-Butylphenoxy)-N-isopropyl-N-((3-(pyridine-3-yl)-1,2,4-oxadiazol-5-yl)methyl)acetamide] | 0.039 µM |  | fold improved CT-L activity: 20 fold
18 | CCCCCc1ccc(OCC(=O)N(Cc2nc(-c3cccnc3)no2)C(C)C)cc1 [11af] |  | 0.121 ± 0.04 µM | fold loss of CT-L activity (compared to 11ad or 11ae): 4 fold
19 | CCCCCCc1ccc(OCC(=O)N(Cc2nc(-c3cccnc3)no2)C(C)C)cc1 [11ag, 2-(4-Hexylphenoxy)-N-isopropyl-N-((3-(pyridine-3-yl)-1,2,4-oxadiazol-5-yl)methyl)acetamide] |  | 0.428 ± 0.038 µM | fold loss of CT-L activity (compared to 11ad or 11ae): 13 fold
20 | CC(C)N(Cc1nc(-c2cccnc2)no1)C(=O)COc1ccc(C2CCCCC2)cc1 [11ah] |  | 1.36 ± 0.184 µM | fold loss of CT-L activity (compared to 11ad or 11ae): 40 fold
21 | CC(C)c1ccc(OCC(=O)N(Cc2nc(-c3cccnc3)no2)C(C)C)cc1 [11ai, N-Isopropyl-2-(4-isopropylphenoxy)-N-((3-(pyridin-3-yl)-1,2,4-oxadiazol-5-yl)methyl)acetamide] |  | 0.436 ± 0.073 µM | CT-L inhibitory activity, in words: failed to improve the CT-L activity
22 | CC(C)N(Cc1nc(-c2cccnc2)no1)C(=O)COc1ccc(C(C)(C)C)cc1 [11aj, N-Isopropyl-2-(4-tert-butylphenoxy)-N-((3-(pyridin-3-yl)-1,2,4-oxadiazol-5-yl)methyl)acetamide] |  | 65.9 ± 33.7 µM | CT-L inhibitory activity, in words: failed to improve the CT-L activity; fold loss of CT-L activity (compared to 11ad or 11ae): > 35 fold

Row | SMILES | IC50 (read-out: IC50, in vitro CT-L) | IC50 [3] | also measured
23 | CC(C)Cc1ccc(OCC(=O)N(Cc2nc(-c3cccnc3)no2)C(C)C)cc1 [11ak, N-Isopropyl-2-(4-isobutylphenoxy)-N-((3-(pyridin-3-yl)-1,2,4-oxadiazol-5-yl)methyl)acetamide] |  | 0.14 ± 0.052 µM | CT-L inhibitory activity, in words: failed to improve the CT-L activity
24 | CCCc1ccc(OCC(=O)N(Cc2nc(-c3cncnc3)no2)C(C)C)cc1 [11al] | 0.032 µM |  | 
25 | CCCc1ccc(OCC(=O)N(Cc2nc(-c3cnccn3)no2)C(C)C)cc1 [11am, N-Isopropyl-2-(4-propylphenoxy)-N-((3-(pyrazin-2-yl)-1,2,4-oxadiazol-5-yl)methyl)acetamide] |  | 0.105 ± 0.031 µM | fold loss of CT-L activity (compared to 11ad or 11ae): 3 fold
26 | CCCCc1ccc(OCC(=O)N(Cc2nc(-c3cnccn3)no2)C(C)C)cc1 [11an] |  | 0.107 ± 0.013 µM | fold loss of CT-L activity (compared to 11ad or 11ae): 3 fold
27 | CCCc1ccc(OCC(=O)N(Cc2nc(-c3ncccn3)no2)C(C)C)cc1 [11ao, N-Isopropyl-2-(4-propylphenoxy)-N-((3-(pyrimidin-2-yl)-1,2,4-oxadiazol-5-yl)methyl)acetamide] | 1.26 µM | 1.27 ± 0.226 µM | fold loss of CT-L activity (compared to 11ad or 11ae): 40 fold
28 | CC(C)N(Cc1nc(-c2ccccc2)no1)C(=O)COc1ccc(C(=O)OC(C)(C)C)cc1 [11aq, tert-Butyl 4-(2-(isopropyl((3-phenyl-1,2,4-oxadiazol-5-yl)methyl)amino)-2-oxoethoxy)benzoate] |  | > 10 µM | 
29 | CC(C)N(Cc1nc(-c2ccccc2)no1)C(=O)COc1ccc(C(F)(F)F)cc1 [11b, N-Isopropyl-N-((3-phenyl-1,2,4-oxadiazol-5-yl)methyl)-2-(4-(trifluoromethyl)phenoxy)acetamide] | 0.3 to 0.5 µM | 0.43 ± 0.12 µM | 
30 | CC(C)N(Cc1nc(-c2ccc(C(F)(F)F)cc2)no1)C(=O)COc1ccc(C(F)(F)F)cc1 [11c, N-Isopropyl-2-(4-(trifluoromethyl)phenoxy)-N-((3-(4-(trifluoromethyl)phenyl)-1,2,4-oxadiazol-5-yl)methyl)acetamide] | 2.53 µM |  | 
31 | CC(C)N(Cc1nc(-c2ccc(Cl)cc2)no1)C(=O)COc1ccc(C(F)(F)F)cc1 [11d, N-((3-(4-chlorophenyl)-1,2,4-oxadiazol-5-yl)methyl)-N-isopropyl-2-(4-(trifluoromethyl)phenoxy)acetamide] | ~1 µM | 0.857 ± 0.35 µM | 
32 | Cc1ccc(-c2noc(CN(C(=O)COc3ccc(Cl)cc3)C(C)C)n2)cc1 [11e, 2-(4-Chlorophenoxy)-N-isopropyl-N-((3-p-tolyl-1,2,4-oxadiazol-5-yl)methyl)acetamide] | ~1 µM | 1.12 ± 0.33 µM | 
33 | CC(C)N(Cc1nc(-c2ccc(C(F)(F)F)cc2)no1)C(=O)COc1ccc(Cl)cc1 [11f, 2-(4-Chlorophenoxy)-N-isopropyl-N-((3-(4-(trifluoromethyl)phenyl)-1,2,4-oxadiazol-5-yl)methyl)acetamide] | ~1 µM | 1.4 ± 0.185 µM | 
34 | CC(C)N(Cc1nc(-c2ccc(Cl)cc2)no1)C(=O)COc1ccc(Cl)cc1 [11g, 2-(4-Chlorophenoxy)-N-((3-(4-chlorophenyl)-1,2,4-oxadiazol-5-yl)methyl)-N-isopropylacetamide] | 1.07 µM |  | 
35 | CC(C)N(Cc1nc(-c2ccccc2)no1)C(=O)COc1ccc(Cl)cc1 [11h, 2-(4-Chlorophenoxy)-N-isopropyl-N-((3-phenyl-1,2,4-oxadiazol-5-yl)methyl)acetamide] | 0.3 to 0.5 µM | 0.51 ± 0.16 µM | 
36 | Cc1ccc(OCC(=O)N(Cc2nc(-c3ccc(Cl)cc3)no2)C(C)C)cc1 [11i, N-((3-(4-chlorophenyl)-1,2,4-oxadiazol-5-yl)methyl)-N-isopropyl-2-(p-tolyloxy)acetamide] | ~1 µM | 0.45 ± 0.15 µM | 
37 | CC(C)N(Cc1nc(-c2ccccc2)no1)C(=O)COc1ccccc1 [11j, N-Isopropyl-2-phenoxy-N-((3-phenyl-1,2,4-oxadiazol-5-yl)methyl)acetamide] | 6.22 µM |  | fold loss of CT-L activity (compared to 1): 10 fold
38 | Cc1ccc(-c2noc(CN(C(=O)COc3ccccc3)C(C)C)n2)cc1 [11k, N-Isopropyl-2-phenoxy-N-((3-p-tolyl-1,2,4-oxadiazol-5-yl)methyl)acetamide] | 8.4 µM | 8.47 ± 0.59 µM | fold loss of CT-L activity (compared to 1): 13 fold
39 | CC(C)N(Cc1nc(-c2ccc(C(F)(F)F)cc2)no1)C(=O)COc1ccccc1 [11l, N-Isopropyl-2-phenoxy-N-((3-(4-(trifluoromethyl)phenyl)-1,2,4-oxadiazol-5-yl)methyl)acetamide] | 15 µM | 15.1 ± 6.94 µM | fold loss of CT-L activity (compared to 1): 25 fold
40 | Cc1ccc(OCC(=O)N(Cc2nc(-c3ccccc3)no2)C(C)C)cc1 [11m, N-isopropyl-N-((3-phenyl-1,2,4-oxadiazol-5-yl)methyl)-2-(p-tolyloxy)acetamide] | 0.3 to 0.5 µM | 0.31 ± 0.08 µM | 
41 | Cc1ccc(OCC(=O)N(Cc2nc(-c3ccc(C(F)(F)F)cc3)no2)C(C)C)cc1 [11n, N-Isopropyl-2-(p-tolyloxy)-N-((3-(4-(trifluoromethyl)phenyl)-1,2,4-oxadiazol-5-yl)methyl)acetamide] | ~1 µM | 0.97 ± 0.15 µM | 
42 | Cc1cccc(OCC(=O)N(Cc2nc(-c3ccccc3)no2)C(C)C)c1 [11o, N-isopropyl-N-((3-phenyl-1,2,4-oxadiazol-5-yl)methyl)-2-(m-tolyloxy)acetamide] |  | > 10 µM | CT-L inhibitory activity, in words: loss of in vitro activity
43 | Cc1ccccc1OCC(=O)N(Cc1nc(-c2ccccc2)no1)C(C)C [11p, N-Isopropyl-N-((3-phenyl-1,2,4-oxadiazol-5-yl)methyl)-2-(o-tolyloxy)acetamide] |  | > 10 µM | CT-L inhibitory activity, in words: loss of in vitro activity
